Laboratory results: US8574569B2, “Stabilized protease composition” (Trobio AB, priority 2005, dated 2013)
Like-named read-outs stand apart in the source and are kept apart here. One block for each compound: values may come before it.

Assays:
human thrombin [1] = target: T1, human thrombin (Homo sapiens, UniProt P00734); experiment: Stability of human thrombin solutions (fibrinogen clotting activity decay curves, T 70%); type: physicochemical; set-up: The thrombin used in the study is human thrombin derived from plasma; purchased Biovitrum AB, Sweden; host or cells: human plasma
Method: This value, denoted “T 70%”, is chosen since it corresponds to what could be accepted as a maximum permitted loss in activity during a life span of a commercial product.
In the experimental studies, a high temperature (37° C.) has been used, as well as a high concentration of enzyme. This has been made in order to obtain stability data in reasonably short times, and not have to wait for months or years.
(§1) The clotting times were measured using an Amelungen Kc 1 coagulometer (Amelungen, Germany). […] From the values obtained, activity decay curves could be constructed.

plasmin = target: T2, plasmin (Homo sapiens, UniProt P00747); experiment: Stability of plasmin solutions (Chromozym TH chromogenic substrate, T 70%); type: physicochemical; conditions: for T 70%: 100 μg/ml plasmin in 10 mM HEPES, 0.13 M NaCl, pH 7.4, 37° C.; for increase in stability of plasmin composition, factor: T 70% relative to plasmin without additives, 37° C.
T2 construct: 100 μg/ml of plasmin (specific activity 3.2 units/mg, Sigma-Aldrich); purchased Sigma-Aldrich
Method: The stabilization of solutions of plasmin in accordance with the invention was tested. The activity of plasmin was determined using chromogenic peptide substrate Chromozym TH (Pentapharm, Switzerland) and measurement of absorbance change at 405 nm in a spectrophotometer. Solutions containing 100 μg/ml of plasmin (specific activity 3.2 units/mg, Sigma-Aldrich) in 10 mM HEPES and 0.13 M NaCl, pH 7.4, as well as stabilizers as indicated in Table 2 below were incubated at 37° C., and samples were taken out at various time intervals for activity determination.

human thrombin [2] = target: T1, human thrombin; conditions: for Apparent inhibition (%) / Apparent thrombin concentration (U/ml): 89 units/ml human thrombin, 0.01 M HEPES, 0.13 M NaCl, pH 7.4
Method: The clotting tests in this experimental setup were performed in 0.01 M HEPES, 0.13 M NaCl buffer of pH 7.4, which is according to standard procedure (EU Pharmacopeia). […] Solutions of various concentrations of morpholine were prepared in the HEPES buffer by adding a concentrated morpholine solution adjusted to pH 7.4.

trypsin = target: T3, trypsin (Bos taurus, UniProt P00760); experiment: Stability of trypsin solutions (TAME substrate, T 70%); type: physicochemical; conditions: for T 70%: 100 μg/ml trypsin in 10 mM HEPES, 0.13 M NaCl, pH 7.4, 37° C.; for increase in stabilization of trypsin, factor: T 70% relative to trypsin without additives, 37° C.
T3 construct: 100 μg/ml of trypsin (TPCK-treated, Sigma-Aldrich); purchased Sigma-Aldrich
T3 sequence (P00760 24-246): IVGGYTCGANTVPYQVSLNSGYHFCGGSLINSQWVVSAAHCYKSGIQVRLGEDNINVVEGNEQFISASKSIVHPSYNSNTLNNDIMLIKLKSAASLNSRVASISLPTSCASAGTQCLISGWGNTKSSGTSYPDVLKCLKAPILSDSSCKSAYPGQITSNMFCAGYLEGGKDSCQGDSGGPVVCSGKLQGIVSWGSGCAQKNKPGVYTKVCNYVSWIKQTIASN
Method: The stabilization of solutions of trypsin in accordance with the invention was tested. The activity of trypsin was determined using tosyl arginine methyl ester (TAME) as substrate and measuring the absorbance change at 247 nm in a spectrophotometer. Solutions containing 100 μg/ml of trypsin (TPCK-treated, Sigma-Aldrich) in 10 mM HEPES and 0.13 M NaCl, pH 7.4, as well as stabilizers as indicated in Table 3 below were incubated at 37° C., and samples were taken out at various time intervals for activity determination.

bovine thrombin = target: T4, bovine thrombin (Bos taurus, UniProt P00735); experiment: Stability of bovine thrombin solutions (T 70%); type: physicochemical; conditions: 0.4 mg/ml bovine thrombin (Baxter) in HEPES buffer, 37° C.
T4 construct: purchased Baxter
Method: as §1

human thrombin [3] = target: T1, human thrombin; experiment: Stability of human thrombin solutions (fibrinogen clotting activity decay curves, T 70%); type: physicochemical; set-up: The thrombin used in the study is human thrombin derived from plasma; purchased Biovitrum AB, Sweden; host or cells: human plasma; conditions: 1 mg/ml thrombin in 10 mM HEPES, 0.13 M NaCl, pH 7.4
[4] = T 70% relative to 1 mg/ml thrombin without additives, 37° C.
[5] = time to reach 70% of initial activity, 1 mg/ml thrombin in 10 mM HEPES, 0.13 M NaCl, pH 7.4, 37° C.

T2 sequence (P00747 581-810 limits assumed, species assumed): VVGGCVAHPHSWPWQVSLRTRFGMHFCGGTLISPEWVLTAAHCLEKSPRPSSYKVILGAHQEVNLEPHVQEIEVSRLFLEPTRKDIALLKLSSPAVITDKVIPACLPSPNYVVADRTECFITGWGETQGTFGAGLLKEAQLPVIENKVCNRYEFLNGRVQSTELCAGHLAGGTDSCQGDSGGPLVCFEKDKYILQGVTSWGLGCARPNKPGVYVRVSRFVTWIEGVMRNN
T2 sequence (P00747 97-580 partner limits assumed, species assumed): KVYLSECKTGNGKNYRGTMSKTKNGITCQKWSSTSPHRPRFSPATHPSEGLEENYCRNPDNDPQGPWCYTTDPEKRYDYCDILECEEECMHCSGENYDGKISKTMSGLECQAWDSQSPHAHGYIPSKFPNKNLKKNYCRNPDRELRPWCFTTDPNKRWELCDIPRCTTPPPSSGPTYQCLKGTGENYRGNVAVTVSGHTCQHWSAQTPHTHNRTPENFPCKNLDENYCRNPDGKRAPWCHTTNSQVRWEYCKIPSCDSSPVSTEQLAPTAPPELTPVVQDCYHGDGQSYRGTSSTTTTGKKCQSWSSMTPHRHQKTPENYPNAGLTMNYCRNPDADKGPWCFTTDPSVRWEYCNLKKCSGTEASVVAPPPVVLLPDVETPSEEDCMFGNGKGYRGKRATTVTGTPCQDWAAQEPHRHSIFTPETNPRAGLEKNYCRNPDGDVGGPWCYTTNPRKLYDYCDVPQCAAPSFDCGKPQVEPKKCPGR

Compound: O=S(=O)(O)CCCN1CCOCC1 [MOPS, 3-(N-morpholino)propanesulfonic acid]
increase in stabilization, factor (human thrombin [1]; [4]): 4.7
T 70% (human thrombin [1]; pH 7.4): 7.5 days

Compound: CCN(CC)CCN [N,N-diethylethylenediamine]
T 70% (plasmin): 8 h
increase in stability of plasmin composition, factor (plasmin): 2.7
T 70% (human thrombin [1]; [5]): 10 days

Compound: [Cl-].[Na+] [NaCl, reference compound]
Apparent inhibition (%) (human thrombin [2]; 0.05 M added): 17%
Apparent thrombin concentration (U/ml) (human thrombin [2]; 0.05 M added): 74 U/ml
Apparent inhibition (%) (human thrombin [2]; 0.10 M added): 40%
Apparent thrombin concentration (U/ml) (human thrombin [2]; 0.10 M added): 53 U/ml
Apparent inhibition (%) (human thrombin [2]; 0.15 M added): 34%
Apparent thrombin concentration (U/ml) (human thrombin [2]; 0.15 M added): 58 U/ml
Apparent inhibition (%) (human thrombin [2]; 0.20 M added): 37%
Apparent thrombin concentration (U/ml) (human thrombin [2]; 0.20 M added): 55 U/ml

Compound: N-(2′-phenoxy)-4-aminopyridin
increase in stabilization, factor (human thrombin [1]; [4]): 22
T 70% (human thrombin [1]; time to reach 70% of initial activity, 1 mg/ml thrombin in 10 mM HEPES, 0.13 M NaCl, pH 7.4, 37° C., listed as 1.9 mM N-(2′-phenoxy)-4-aminopyridin): 35 days
T 70% (human thrombin [1]; time to reach 70% of initial activity, 1 mg/ml thrombin in 10 mM HEPES, 0.13 M NaCl, pH 7.4, 37° C., listed as 3.1 mM N-(2′-phenoxy)-4-aminopyridin): 74 days

Compound: aminobenzamidine [reference compound]
T 70% (plasmin): 52 h
increase in stability of plasmin composition, factor (plasmin): 17
increase in stabilization, factor (human thrombin [1]): 12.5
T 70% (human thrombin [1]; pH 7.4): 20 days

Compound: bovine thrombin: bovine thrombin (Baxter), solution in HEPES buffer without additives
T 70% (bovine thrombin): 1.3 days

Compound: thrombin
T 70% (human thrombin [1]; 15.0 activity units/ml human thrombin in HEPES buffer, pH 7.4): 23 days
T 70% (human thrombin [3]; refrigerator storage (around 5° C.)): 36 days
T 70% (human thrombin [3]; room temperature (around 21° C.)): 5.4 days

Second part, the compound after the results:

T 70% (plasmin): 16 h
T 70% (trypsin): 43 h
increase in stabilization of trypsin, factor (trypsin): 72
Compound: N=C(N)c1ccccc1 [benzamidine, reference compound]

Apparent inhibition (%) (human thrombin [2]; 0.05 M added): 4%
Apparent thrombin concentration (U/ml) (human thrombin [2]; 0.05 M added): 87 U/ml
Apparent inhibition (%) (human thrombin [2]; 0.10 M added): 20%
Apparent thrombin concentration (U/ml) (human thrombin [2]; 0.10 M added): 71 U/ml
Apparent inhibition (%) (human thrombin [2]; 0.15 M added): 45%
Apparent thrombin concentration (U/ml) (human thrombin [2]; 0.15 M added): 49 U/ml
Apparent inhibition (%) (human thrombin [2]; 0.20 M added): 43%
Apparent thrombin concentration (U/ml) (human thrombin [2]; 0.20 M added): 51 U/ml
inhibitor of thrombin (conclusion) (human thrombin [2]; clotting time prolongation ascribed to ionic strength): not an inhibitor of thrombin
T 70% (plasmin): 12 h
increase in stability of plasmin composition, factor (plasmin): 4
T 70% (trypsin): 8 h
increase in stabilization of trypsin, factor (trypsin): 13
T 70% (human thrombin [1]; [5]): 8.5 days
Compound: C1COCCN1 [morpholine]

T 70% (human thrombin [1]; [5]): 4.0 days
Compound: O=S(=O)(O)CCCCN1CCOCC1 [morpholino butyl sulphonic acid]

T 70% (human thrombin [1]; [5]): 3.8 days
Compound: OCCN1CCOCC1 [morpholino ethyl alcohol]

T 70% (human thrombin [1]; [5]): 3.2 days
Compound: O=S(=O)(O)CCN1CCOCC1 [morpholino ethyl sulphonic acid]

T 70% (human thrombin [1]; [5]): 4.1 days
Compound: O=C(O)CCCN1CCOCC1 [morpholino propyl carboxylic acid]
